In ChEMBL document CHEMBL1201862, “PubChem BioAssay data set” (2004):
Blank lines part the entries; values can stand above or below the compound they belong to. The source made the active and inactive calls.

Legend:
[1] = molecular target: T1, Delta-type opioid receptor (Homo sapiens, UniProt P41143); experiment: HTS Image-Based Screen for Agonists of the DOR Receptor. [Related pubchem assays (depositor defined):AID1777, AID1786, AID2133]; type: functional
[2] = molecular target: T2, Kappa-type opioid receptor (Homo sapiens, UniProt P41145); type: functional
Beta-galactosidase [3] = molecular target: T3, Beta-galactosidase (Escherichia coli, UniProt Q8VNN2); type: functional
[4] = molecular target: T2, Kappa-type opioid receptor; type: functional; remark: listed apart in the source
[5] = molecular target: T1, Delta-type opioid receptor; experiment: HTS Image-Based Screen for Antagonists of the DOR Receptor. [Related pubchem assays (depositor defined):AID1777, AID1785, AID1786, AID2133]; type: functional
Mu-type opioid receptor = Mu-type opioid receptor (Homo sapiens, UniProt P35372); experiment: HTS Image-Based Screen for Agonists of the MOR Receptor. [Related pubchem assays (depositor defined):AID1777, AID1785, AID1786, AID2133]; type: functional;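 further: imaging of beta-arrestin GFP recruitment into spots after receptor activation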
[6] = molecular target: Alkaline phosphatase, placental type (Homo sapiens, UniProt P05187); experiment: human placental alkaline phosphatase inhibition – biochemical, luminescence, confirmation (AID 1512); type: functional
[7] = molecular target: 72 kDa type IV collagenase (Homo sapiens, UniProt P08253); experiment: Dose Response validation of uHTS RPN11 inhibitor hits using a MMP-2 Fluorescence assay.; type: functional
Cytochrome P450 2C9 = Cytochrome P450 2C9 (Homo sapiens, UniProt P11712)
[8] = Shn3 3'UTR reporter signal decrease – cell-based, Clone20 osteoblasts, firefly luciferase, cherry-pick, set 2, Schnurri-3 inhibitor project, dose response (AID 720490); type: functional;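 further: actives lower the luminescence signal as inhibitors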
[9] = molecular target: T4, Type-1 angiotensin II receptor (Homo sapiens, UniProt P30556); experiment: antagonism of angiotensin II type 1 receptor – cell-based, uHTS hits, selectivity assay for APJ receptor antagonist project, dose response (AID 463214); type: functional;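 further: antagonist potency against angiotensin II stimulated AT1 response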
T4 sequence (P30556 whole entry): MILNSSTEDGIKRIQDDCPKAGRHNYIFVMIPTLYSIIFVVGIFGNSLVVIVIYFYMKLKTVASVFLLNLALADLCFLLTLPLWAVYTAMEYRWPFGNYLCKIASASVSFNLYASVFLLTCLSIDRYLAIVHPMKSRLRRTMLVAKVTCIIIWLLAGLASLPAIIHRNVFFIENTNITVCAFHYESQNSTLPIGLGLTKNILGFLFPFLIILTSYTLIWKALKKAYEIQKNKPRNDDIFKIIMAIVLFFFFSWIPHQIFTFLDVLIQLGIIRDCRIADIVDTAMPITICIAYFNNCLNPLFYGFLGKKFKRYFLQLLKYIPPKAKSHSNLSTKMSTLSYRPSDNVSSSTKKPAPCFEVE

Beta-galactosidase [10] = molecular target: T3, Beta-galactosidase; experiment: PubChem AID 485352; type: functional
Prothrombin = Prothrombin (Bos taurus, UniProt P00735); experiment: thrombin protease inhibitors – biochemical, fluorescence polarization, uHTS hits, dose response (AID 602369); type: functional
[11] = reduction of Shn3 3'UTR-driven luciferase in osteoblasts – cell-based, Clone20 osteoblasts, firefly luciferase, cherry-picked, dose response (AID 624132); type: functional;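 further: firefly luciferase luminescence from reporter carrying the Shn3 3'UTR in osteoblasts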
[12] = loss of viability in HepG2 cells – cell-based, CellTiter-Glo, cherry-picked, cytotoxicity control for Shn3 inhibitor project, dose response (AID 624134); type: functional
[13] = Trypanosoma cruzi growth suppression in host cells – NIH3T3 host cells, beta-gal luminescence, confirmation (AID 2044); type: functional, cell-based;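 further: intracellular parasites grown in NIH/3T3 mouse fibroblasts as host cells; luminescent beta-galactosidase reporter signal from transgenic T. cruzi replicating inside host cells; inhibitors lower the luminescence signal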
[14] = molecular target: 26S proteasome non-ATPase regulatory subunit 14 (Homo sapiens, UniProt O00487); experiment: inhibition of proteasome subunit RPN11 – biochemical, fluorescence polarization, uHTS hits, confirmation (AID 602368); type: functional
[15] = NIH3T3 cell viability loss – ATP luminescence, mouse fibroblasts, counter-screen, dose response (AID 2010); type: functional, cell-based;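 further: cells exposed to compound for about 90 hours before reading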
[16] = molecular target: Peroxisome proliferator-activated receptor gamma/Nuclear receptor corepressor 2 (Homo sapiens, UniProt P37231+Q9Y618); type: functional
[17] = molecular target: Photoreceptor-specific nuclear receptor (Homo sapiens, UniProt Q9Y5X4); type: functional;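 further: potency for compounds that break the NR2E3 corepressor complex and count as activators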
Beta-galactosidase [18] = molecular target: T3, Beta-galactosidase; experiment: detection-enzyme interference by beta-gal modulators – biochemical, E. coli enzyme, set 3, artefact control for CCR6 antagonist project, dose response (AID 504712); type: functional

T2 sequence (P41145 whole entry): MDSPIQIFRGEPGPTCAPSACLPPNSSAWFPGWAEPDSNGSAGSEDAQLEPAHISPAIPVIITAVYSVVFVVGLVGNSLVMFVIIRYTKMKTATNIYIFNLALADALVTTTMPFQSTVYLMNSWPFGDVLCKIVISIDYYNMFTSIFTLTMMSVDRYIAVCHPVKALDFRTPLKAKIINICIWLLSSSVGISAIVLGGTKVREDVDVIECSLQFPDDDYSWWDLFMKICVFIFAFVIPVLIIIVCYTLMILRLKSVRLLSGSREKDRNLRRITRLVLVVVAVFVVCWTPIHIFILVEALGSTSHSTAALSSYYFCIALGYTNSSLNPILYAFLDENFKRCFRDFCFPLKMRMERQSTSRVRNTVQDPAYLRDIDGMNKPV
T3 sequence (Q8VNN2 whole entry): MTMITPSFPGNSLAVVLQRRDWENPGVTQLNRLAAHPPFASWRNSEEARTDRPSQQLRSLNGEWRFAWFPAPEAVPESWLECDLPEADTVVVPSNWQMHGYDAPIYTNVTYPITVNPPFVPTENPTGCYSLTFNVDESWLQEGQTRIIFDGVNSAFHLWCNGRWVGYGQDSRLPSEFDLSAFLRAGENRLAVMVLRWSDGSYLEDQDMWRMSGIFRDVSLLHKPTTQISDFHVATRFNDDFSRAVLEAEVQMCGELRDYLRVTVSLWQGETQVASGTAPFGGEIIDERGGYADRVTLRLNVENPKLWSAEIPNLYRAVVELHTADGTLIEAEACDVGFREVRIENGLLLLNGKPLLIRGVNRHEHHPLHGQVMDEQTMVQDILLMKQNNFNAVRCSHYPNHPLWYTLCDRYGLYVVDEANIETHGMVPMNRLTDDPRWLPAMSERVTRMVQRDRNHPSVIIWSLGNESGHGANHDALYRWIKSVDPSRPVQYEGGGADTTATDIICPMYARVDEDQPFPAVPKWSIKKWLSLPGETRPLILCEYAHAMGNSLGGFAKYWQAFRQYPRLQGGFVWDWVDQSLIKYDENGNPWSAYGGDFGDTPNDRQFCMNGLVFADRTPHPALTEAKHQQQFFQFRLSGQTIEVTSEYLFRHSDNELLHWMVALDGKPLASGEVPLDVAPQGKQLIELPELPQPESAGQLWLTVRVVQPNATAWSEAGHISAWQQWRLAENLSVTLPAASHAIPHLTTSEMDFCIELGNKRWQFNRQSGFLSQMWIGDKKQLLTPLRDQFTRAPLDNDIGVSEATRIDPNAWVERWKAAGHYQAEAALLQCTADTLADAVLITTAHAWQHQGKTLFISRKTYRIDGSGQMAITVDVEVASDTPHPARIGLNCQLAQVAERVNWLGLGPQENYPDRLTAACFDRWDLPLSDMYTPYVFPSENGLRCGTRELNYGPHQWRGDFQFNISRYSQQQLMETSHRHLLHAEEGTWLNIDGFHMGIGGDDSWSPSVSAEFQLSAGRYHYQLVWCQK
T1 sequence (P41143 whole entry): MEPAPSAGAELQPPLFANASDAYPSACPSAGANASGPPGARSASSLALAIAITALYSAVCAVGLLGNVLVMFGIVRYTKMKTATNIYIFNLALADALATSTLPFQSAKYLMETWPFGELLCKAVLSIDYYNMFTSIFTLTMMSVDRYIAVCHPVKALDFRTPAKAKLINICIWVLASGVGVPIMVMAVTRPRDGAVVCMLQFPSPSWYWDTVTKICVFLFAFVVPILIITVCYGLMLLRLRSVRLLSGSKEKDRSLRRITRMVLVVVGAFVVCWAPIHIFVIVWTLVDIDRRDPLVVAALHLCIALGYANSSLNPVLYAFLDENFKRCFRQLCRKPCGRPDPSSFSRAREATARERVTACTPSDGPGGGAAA
Sequence of Mu-type opioid receptor (P35372 whole entry): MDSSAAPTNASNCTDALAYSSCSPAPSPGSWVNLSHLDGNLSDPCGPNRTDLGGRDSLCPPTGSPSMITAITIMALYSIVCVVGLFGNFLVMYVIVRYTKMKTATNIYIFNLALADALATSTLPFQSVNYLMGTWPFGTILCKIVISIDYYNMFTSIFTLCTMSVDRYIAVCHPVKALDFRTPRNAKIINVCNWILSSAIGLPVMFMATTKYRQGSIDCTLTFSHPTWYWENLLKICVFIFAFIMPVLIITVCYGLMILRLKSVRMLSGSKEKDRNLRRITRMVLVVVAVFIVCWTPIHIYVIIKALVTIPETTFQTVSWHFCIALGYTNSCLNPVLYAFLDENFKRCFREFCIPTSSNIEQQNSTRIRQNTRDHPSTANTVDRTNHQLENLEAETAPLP
Sequence of Alkaline phosphatase, placental type (P05187 whole entry): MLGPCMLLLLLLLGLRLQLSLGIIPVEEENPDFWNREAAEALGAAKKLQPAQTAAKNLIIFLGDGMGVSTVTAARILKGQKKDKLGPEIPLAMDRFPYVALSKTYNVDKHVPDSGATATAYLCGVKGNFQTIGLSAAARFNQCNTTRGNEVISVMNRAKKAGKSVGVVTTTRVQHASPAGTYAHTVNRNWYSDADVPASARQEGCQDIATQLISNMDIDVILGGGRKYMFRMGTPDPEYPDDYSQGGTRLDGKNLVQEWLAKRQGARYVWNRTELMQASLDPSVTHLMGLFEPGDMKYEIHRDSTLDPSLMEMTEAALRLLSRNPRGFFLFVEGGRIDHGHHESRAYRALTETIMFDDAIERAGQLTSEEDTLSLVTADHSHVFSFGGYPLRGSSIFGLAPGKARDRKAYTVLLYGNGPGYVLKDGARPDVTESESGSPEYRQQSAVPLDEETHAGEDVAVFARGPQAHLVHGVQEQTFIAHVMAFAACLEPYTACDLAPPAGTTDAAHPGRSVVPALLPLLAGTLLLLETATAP
Sequence of 26S proteasome non-ATPase regulatory subunit 14 (O00487 whole entry): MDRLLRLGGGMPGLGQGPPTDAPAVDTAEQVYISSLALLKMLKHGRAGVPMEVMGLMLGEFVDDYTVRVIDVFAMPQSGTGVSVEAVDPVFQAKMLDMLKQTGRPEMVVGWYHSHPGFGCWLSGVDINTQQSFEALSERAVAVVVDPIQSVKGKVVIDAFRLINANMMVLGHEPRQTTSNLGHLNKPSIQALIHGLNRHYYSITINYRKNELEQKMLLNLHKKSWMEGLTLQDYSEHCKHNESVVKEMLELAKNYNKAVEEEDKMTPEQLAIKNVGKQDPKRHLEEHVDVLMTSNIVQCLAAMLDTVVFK
Sequence of 72 kDa type IV collagenase (P08253 whole entry): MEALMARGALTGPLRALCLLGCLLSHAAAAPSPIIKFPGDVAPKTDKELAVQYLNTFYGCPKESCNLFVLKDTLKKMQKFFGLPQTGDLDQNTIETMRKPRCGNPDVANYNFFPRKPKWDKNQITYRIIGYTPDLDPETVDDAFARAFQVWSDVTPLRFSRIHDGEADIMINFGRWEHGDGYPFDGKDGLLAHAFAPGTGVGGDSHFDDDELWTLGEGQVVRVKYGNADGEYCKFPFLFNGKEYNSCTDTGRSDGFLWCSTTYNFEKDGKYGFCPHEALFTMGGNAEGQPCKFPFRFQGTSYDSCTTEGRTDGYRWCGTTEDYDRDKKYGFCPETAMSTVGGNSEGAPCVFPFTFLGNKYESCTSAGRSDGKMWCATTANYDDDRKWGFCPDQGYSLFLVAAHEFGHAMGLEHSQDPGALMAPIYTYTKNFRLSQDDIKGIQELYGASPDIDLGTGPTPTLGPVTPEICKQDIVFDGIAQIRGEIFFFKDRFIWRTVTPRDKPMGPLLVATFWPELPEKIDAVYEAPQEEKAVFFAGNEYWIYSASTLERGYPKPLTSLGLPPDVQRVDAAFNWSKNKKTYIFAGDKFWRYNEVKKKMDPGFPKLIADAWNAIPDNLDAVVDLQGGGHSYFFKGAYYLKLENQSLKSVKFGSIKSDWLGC
Sequence of Cytochrome P450 2C9 (P11712 whole entry): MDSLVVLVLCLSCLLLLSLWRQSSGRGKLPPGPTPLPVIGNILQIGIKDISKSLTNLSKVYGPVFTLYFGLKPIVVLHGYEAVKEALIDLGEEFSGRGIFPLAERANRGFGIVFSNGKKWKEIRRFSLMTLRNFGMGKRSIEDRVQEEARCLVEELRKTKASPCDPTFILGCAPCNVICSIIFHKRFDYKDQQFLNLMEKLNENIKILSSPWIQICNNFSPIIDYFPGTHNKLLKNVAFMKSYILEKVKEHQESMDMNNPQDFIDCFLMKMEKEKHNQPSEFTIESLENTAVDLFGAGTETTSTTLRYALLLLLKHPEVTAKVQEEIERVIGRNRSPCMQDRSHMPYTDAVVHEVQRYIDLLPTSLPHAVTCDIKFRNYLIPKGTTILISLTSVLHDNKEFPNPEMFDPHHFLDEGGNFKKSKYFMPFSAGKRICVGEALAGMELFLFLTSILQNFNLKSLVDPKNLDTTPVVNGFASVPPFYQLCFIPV
Sequence of Photoreceptor-specific nuclear receptor (Q9Y5X4 whole entry): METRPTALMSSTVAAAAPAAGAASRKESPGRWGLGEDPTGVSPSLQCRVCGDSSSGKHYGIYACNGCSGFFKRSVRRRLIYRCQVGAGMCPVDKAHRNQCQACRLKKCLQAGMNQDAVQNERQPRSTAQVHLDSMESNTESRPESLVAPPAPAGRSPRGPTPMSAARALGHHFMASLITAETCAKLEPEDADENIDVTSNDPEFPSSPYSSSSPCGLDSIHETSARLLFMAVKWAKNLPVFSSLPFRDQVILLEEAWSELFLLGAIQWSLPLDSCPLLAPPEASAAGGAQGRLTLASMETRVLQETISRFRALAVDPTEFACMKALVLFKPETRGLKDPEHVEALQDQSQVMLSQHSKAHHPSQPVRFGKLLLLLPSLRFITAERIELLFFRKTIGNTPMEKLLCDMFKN

EC50 [1]: > 32 µM (inactive) | IC50 [2]: 10 µM (active) | EC50 (Beta-galactosidase [3]): > 31.5 µM (inactive) | IC50 [4]: 9.42 µM | IC50 [5]: > 32 µM (inactive) | EC50 (Mu-type opioid receptor): > 32 µM (inactive)
SMILES: COc1cc2c(c(OC)c1OC)-c1c(cc3c(c1OC)OCO3)C1OC2[C@@H](C)[C@H]1C (some centres not stated)

IC50 [6]: > 100 µM (inactive)
SMILES: CC(=O)NNc1ncnc2c1cnn2-c1ccc(C)cc1

SMILES: Cc1cccc(CSc2cccc3cccnc23)c1
IC50 [7]: > 100 µM (inactive) | AC50 (Cytochrome P450 2C9): inconclusive | AC50 [8]: 7.99 µM (active) | EC50 [1]: > 32 µM (inactive) | IC50 [9]: 10.1 µM (active) | EC50 (Beta-galactosidase [10]): > 40 µM (inactive) | IC50 [2]: 8.68 µM (active) | EC50 (Beta-galactosidase [3]): > 31.5 µM (inactive) | IC50 [4]: > 32 µM | IC50 (Prothrombin): > 100 µM (inactive) | AC50 [11]: 2.54 µM (active) | AC50 [12]: > 70 µM (inactive) | EC50 [13]: 0.307 µM (active) | IC50 [14]: 21.5 µM (active) | IC50 [5]: > 32 µM (inactive) | EC50 [15]: 9.65 µM (active) | EC50 (Mu-type opioid receptor): > 32 µM (inactive)

IC50 [16]: 15 µM (not active) | IC50 [17]: > 39.8 µM (not active) | IC50 (Beta-galactosidase [18]): > 66.6 µM (inactive)
SMILES: CCN(CC(=O)NC(C)(C)C)Cc1nc(O)c2cc(Br)cc(Br)c2n1
